Patent US7767659B2, “Synthesis of naturally occurring ecteinascidins and related compounds” (Pharma Mar, S.A., priority 2002, dated 2010)
Like-named read-outs stand apart in the source and are kept apart here.

Experiments:
HT-29 = experiment: cells; conditions: for GI50: read-out: GI50 HT29; for CC50: read-out: LC50 HT29; for IC (TGI): read-out: TGI HT29
Experimental: (§1) This form of the assay employs 96 well cell culture microplates of 9 mm diameter (Faircloth, 1988; Mosmann, 1983). Most of the cell lines are obtained from American Type Culture Collection (ATCC) derived from different human cancer types.
(§2) Cells are maintained in RPMI 1640 10% FBS, supplemented with 0.1 g/l penicillin and 0.1 g/l streptomycin sulfate and then incubated at 37° C., 5% CO2 and 98% humidity. For the experiments, cells were harvested from subconfluent cultures using trypsin and resuspended in fresh medium before plating.
(§3) Cells are seeded in 96 well microtiter plates, at 5×10^3 cells per well in aliquots of 195 μl medium, and they are allowed to attach to the plate surface by growing in drug free medium for 18 hours. Afterward, samples are added in aliquots of 5 μl in a ranging from 10 to 10^−8 μg/ml, dissolved in DMSO/EtOH/PBS (0.5:0.5:99). After 48 hours exposure, the antitumor effect are measured by the SRB methodology: cells are fixed by adding 50 μl of cold 50% (wt/vol) trichloroacetic acid (TCA) and incubating for 60 minutes at 4° C. Plates are washed with deionized water and dried. One hundred μl of SRB solution (0.4% wt/vol in 1% acetic acid) is added to each microtiter well and incubated for 10 minutes at room temperature. Unbound SRB is removed by washing with 1% acetic acid. Plates are air dried and bound stain is solubilzed with Tris buffer. Optical densities are read on a automated spectrophotometric plate reader at a single wavelength of 490 nm.
(§4) The values for mean +/− SD of data from triplicate wells are calculated. Some parameters for cellular responses can be calculated: GI=growth inhibition, TGI=total growth inhibition (cytostatic effect) and LC=cell killing (cytotoxic effect).

A-549 = experiment: cells; conditions: for GI50: read-out: GI50 A549; for CC50: read-out: LC50 A549; for IC (TGI): read-out: TGI A549
Experimental: as §1, §2, §3, §4

Q: What does the source list for `C=CCOc1c(C)c2c(c3c1CC1[C@H]4c5c(cc(C)c(OC)c5O)C[C@@H]([C@H](C#N)N1[C@H]3CO[Si](c1ccccc1)(c1ccccc1)C(C)(C)C)N4C)OCO2` (stereo partly drawn) [compound 3]?
A: GI50 (HT-29; Homo sapiens, HT-29, 48 h): 4.01 µM; CC50 (HT-29; Homo sapiens, HT-29, 48 h): 13.2 µM; IC (TGI) (HT-29; Homo sapiens, HT-29, 48 h): 12.3 µM; GI50 (A-549; Homo sapiens, A549, 48 h): 4.18 µM; CC50 (A-549; Homo sapiens, A549, 48 h): 13.2 µM; IC (TGI) (A-549; Homo sapiens, A549, 48 h): 13 µM

Q: With `C=CCOc1c(C)c2c(c3c1CC1[C@H]4c5c(cc(C)c(OC)c5OCOCCOC)C[C@@H]([C@H](C#N)N1[C@H]3CO[Si](c1ccccc1)(c1ccccc1)C(C)(C)C)N4C)OCO2` (stereo partly drawn) [compound 4] as the compound, how does the GI50 (HT-29; Homo sapiens, HT-29, 48 h) read?
A: 0.591 µM

Q: What about the CC50 (HT-29; Homo sapiens, HT-29, 48 h) of the same compound?
A: 11.8 µM

Q: And the IC (TGI) (HT-29; Homo sapiens, HT-29, 48 h)?
A: 1.18 µM

Q: And the GI50 (A-549; Homo sapiens, A549, 48 h)?
A: 2.36 µM

Q: And the CC50 (A-549; Homo sapiens, A549, 48 h)?
A: 11.8 µM

Q: What about the IC (TGI) (A-549; Homo sapiens, A549, 48 h) of the same compound?
A: 8.27 µM

Q: With `C=CCOc1c(C)c2c(c3c1CC1[C@@H]4N[C@@H](Cc5cc(C)c(OC)c(OCOCCOC)c54)[C@H](C#N)N1[C@H]3CO[Si](c1ccccc1)(c1ccccc1)C(C)(C)C)OCO2` (stereo partly drawn) [compound 5] as the compound, how does the GI50 (HT-29; Homo sapiens, HT-29, 48 h) read?
A: 0.481 µM

Q: And the CC50 (HT-29; Homo sapiens, HT-29, 48 h)?
A: 6.01 µM

Q: What about the IC (TGI) (HT-29; Homo sapiens, HT-29, 48 h) of the same compound?
A: 1.2 µM

Q: What about the GI50 (A-549; Homo sapiens, A549, 48 h) of the same compound?
A: 0.721 µM

Q: What about the CC50 (A-549; Homo sapiens, A549, 48 h) of the same compound?
A: 8.41 µM

Q: And the IC (TGI) (A-549; Homo sapiens, A549, 48 h)?
A: 2.4 µM

Q: With `COCCOCOc1c(OC)c(C)cc2c1[C@H]1N[C@@H](C2)[C@H](C#N)N2C1Cc1c(O)c(C)c3c(c1[C@@H]2CO[Si](c1ccccc1)(c1ccccc1)C(C)(C)C)OCO3` (stereo partly drawn) [compound 6] as the compound, how does the GI50 (HT-29; Homo sapiens, HT-29, 48 h) read?
A: 12.5 µM

Q: And the CC50 (HT-29; Homo sapiens, HT-29, 48 h)?
A: 12.6 µM

Q: What about the IC (TGI) (HT-29; Homo sapiens, HT-29, 48 h) of the same compound?
A: 12.6 µM

Q: What about the GI50 (A-549; Homo sapiens, A549, 48 h) of the same compound?
A: 6.65 µM

Q: And the CC50 (A-549; Homo sapiens, A549, 48 h)?
A: 12.6 µM

Q: What about the IC (TGI) (A-549; Homo sapiens, A549, 48 h) of the same compound?
A: 12.6 µM

Q: Which “TGI HT29” value (HT-29; HT29, SRB, 48 hours exposure) does the source give for `COCCOCOc1c(OC)c(C)cc2c1[C@H]1N[C@@H](C2)[C@H](C#N)N2C1CC1(O)C(=O)C(C)=C3OCOC3=C1[C@@H]2CO[Si](c1ccccc1)(c1ccccc1)C(C)(C)C` (stereo partly drawn) [compound 7] here?
A: 2.40E−06 Molar

Q: And the GI50 (HT-29; HT29, SRB, 48 hours exposure)?
A: 0.918 µM

Q: And the CC50 (HT-29; HT29, SRB, 48 hours exposure)?
A: 5.46 µM

Q: What about the “TGI A549” value (A-549; A549, SRB, 48 hours exposure) of the same compound?
A: 3.51E−06 Molar

Q: What about the GI50 (A-549; A549, SRB, 48 hours exposure) of the same compound?
A: 1.87 µM

Q: And the CC50 (A-549; A549, SRB, 48 hours exposure)?
A: 6.61 µM

Q: With `C=CCN1[C@@H]2c3c(cc(C)c(OC)c3OCOCCOC)C[C@H]1[C@H](C#N)N1C2CC2(O)C(=O)C(C)=C3OCOC3=C2[C@@H]1CO[Si](c1ccccc1)(c1ccccc1)C(C)(C)C` (stereo partly drawn) [compound 8] as the compound, how does the GI50 (HT-29; Homo sapiens, HT-29, 48 h) read?
A: 7.82 µM

Q: What about the CC50 (HT-29; Homo sapiens, HT-29, 48 h) of the same compound?
A: 11.8 µM

Q: What about the IC (TGI) (HT-29; Homo sapiens, HT-29, 48 h) of the same compound?
A: 11.8 µM

Q: And the GI50 (A-549; Homo sapiens, A549, 48 h)?
A: 11.8 µM

Q: And the CC50 (A-549; Homo sapiens, A549, 48 h)?
A: 11.8 µM

Q: And the IC (TGI) (A-549; Homo sapiens, A549, 48 h)?
A: 11.8 µM

Q: For `C=CCN1[C@@H]2c3c(cc(C)c(OC)c3OCOCCOC)C[C@H]1[C@H](C#N)N1C2CC2(O)C(=O)C(C)=C3OCOC3=C2[C@@H]1CO` (stereo partly drawn) [compound 9], which GI50 (HT-29; Homo sapiens, HT-29, 48 h) is on record?
A: 16.4 µM

Q: What about the CC50 (HT-29; Homo sapiens, HT-29, 48 h) of the same compound?
A: 16.4 µM

Q: What about the IC (TGI) (HT-29; Homo sapiens, HT-29, 48 h) of the same compound?
A: 16.4 µM

Q: And the GI50 (A-549; Homo sapiens, A549, 48 h)?
A: 16.4 µM

Q: And the CC50 (A-549; Homo sapiens, A549, 48 h)?
A: 16.4 µM

Q: And the IC (TGI) (A-549; Homo sapiens, A549, 48 h)?
A: 16.4 µM
